Converted amounts (≈) assume the structure as drawn.
Assays:
Staphylococcus aureus [1] = experiment: Antibacterial activity against Staphylococcus aureus ATCC25923 incubated for 16 to 20 hrs by broth microdilution method; assay type: functional; settings: time 16-20 hrs
Escherichia coli [2] = experiment: Antibacterial activity against Escherichia coli ATCC25922 incubated for 16 to 20 hrs by broth microdilution method; assay type: functional; settings: time 16-20 hrs
Enterococcus faecalis [3] = experiment: Antibacterial activity against Enterococcus faecalis ATCC29212 incubated for 16 to 20 hrs by broth microdilution method; assay type: functional; settings: time 16-20 hrs
[4] = system: Stenotrophomonas maltophilia; experiment: Antibacterial activity against Stenotrophomonas maltophilia ATCC17808 incubated for 16 to 20 hrs by broth microdilution method; assay type: functional; settings: time 16-20 hrs
Staphylococcus aureus [5] = experiment: Antibacterial activity against drug-resistant Staphylococcus aureus clinical isolate M20 incubated for 16 to 20 hrs by broth microdilution method; assay type: functional; settings: time 16-20 hrs
Escherichia coli [6] = experiment: Antibacterial activity against drug-resistant Escherichia coli clinical isolate 1322 incubated for 16 to 20 hrs by broth microdilution method; assay type: functional; settings: time 16-20 hrs
Escherichia coli [7] = experiment: Antibacterial activity against drug-resistant Escherichia coli clinical isolate 1333 incubated for 16 to 20 hrs by broth microdilution method; assay type: functional; settings: time 16-20 hrs
Staphylococcus aureus [8] = experiment: Bactericidal activity against Staphylococcus aureus ATCC25923 incubated for 20 to 24 hrs; assay type: functional; settings: time 20-24 hrs
Staphylococcus aureus [9] = experiment: Antibacterial activity against Staphylococcus aureus ATCC25923 incubated for 20 to 24 hrs; assay type: functional; settings: time 20-24 hrs
Staphylococcus aureus [10] = experiment: Ratio of MBC to MIC for Staphylococcus aureus ATCC25923 incubated for 20 to 24 hrs; assay type: functional; settings: time 20-24 hrs
Enterococcus faecalis [11] = experiment: Bactericidal activity against Enterococcus faecalis ATCC29212 incubated for 20 to 24 hrs; assay type: functional; settings: time 20-24 hrs
Enterococcus faecalis [12] = experiment: Antibacterial activity against Enterococcus faecalis ATCC29212 incubated for 20 to 24 hrs; assay type: functional; settings: time 20-24 hrs
Enterococcus faecalis [13] = experiment: Ratio of MBC to MIC for Enterococcus faecalis ATCC29212 incubated for 20 to 24 hrs; assay type: functional; settings: time 20-24 hrs
Escherichia coli [14] = experiment: Bactericidal activity against Escherichia coli ATCC25922 incubated for 20 to 24 hrs; assay type: functional; settings: time 20-24 hrs
Escherichia coli [15] = experiment: Antibacterial activity against Escherichia coli ATCC25922 incubated for 20 to 24 hrs; assay type: functional; settings: time 20-24 hrs
Escherichia coli [16] = experiment: Ratio of MBC to MIC for Escherichia coli ATCC25922 incubated for 20 to 24 hrs; assay type: functional; settings: time 20-24 hrs
[17] = system: Stenotrophomonas maltophilia; experiment: Bactericidal activity against Stenotrophomonas maltophilia ATCC17808 incubated for 20 to 24 hrs; assay type: functional; settings: time 20-24 hrs
[18] = system: Stenotrophomonas maltophilia; experiment: Antibacterial activity against Stenotrophomonas maltophilia ATCC17808 incubated for 20 to 24 hrs; assay type: functional; settings: time 20-24 hrs
[19] = system: Stenotrophomonas maltophilia; experiment: Ratio of MBC to MIC for Stenotrophomonas maltophilia ATCC17808 incubated for 20 to 24 hrs; assay type: functional; settings: time 20-24 hrs
Escherichia coli [20] = experiment: Antibacterial activity against Escherichia coli ATCC25922 at pH 6.80; assay type: functional
Escherichia coli [21] = experiment: Antibacterial activity against Escherichia coli ATCC25922 at pH 7; assay type: functional
Escherichia coli [22] = experiment: Antibacterial activity against Escherichia coli ATCC25922 at pH 7.20; assay type: functional
Escherichia coli [23] = experiment: Antibacterial activity against Escherichia coli ATCC25922 at pH 7.40; assay type: functional
Escherichia coli [24] = experiment: Antibacterial activity against Escherichia coli ATCC25922 at pH 7.60; assay type: functional
Escherichia coli [25] = experiment: Antibacterial activity against Escherichia coli ATCC25922 at pH 7.80; assay type: functional
Staphylococcus aureus [26] = experiment: Antibacterial activity against Staphylococcus aureus ATCC25923 at pH 6.80; assay type: functional
Staphylococcus aureus [27] = experiment: Antibacterial activity against Staphylococcus aureus ATCC25923 at pH 7; assay type: functional
Staphylococcus aureus [28] = experiment: Antibacterial activity against Staphylococcus aureus ATCC25923 at pH 7.20; assay type: functional
Staphylococcus aureus [29] = experiment: Antibacterial activity against Staphylococcus aureus ATCC25923 at pH 7.40; assay type: functional
Staphylococcus aureus [30] = experiment: Antibacterial activity against Staphylococcus aureus ATCC25923 at pH 7.60; assay type: functional
Staphylococcus aureus [31] = experiment: Antibacterial activity against Staphylococcus aureus ATCC25923 at pH 7.80; assay type: functional
Escherichia coli [32] = experiment: Antibacterial activity against Escherichia coli ATCC25922 under 10^4 CFU/ml of bacterial inoculum culture by absorbance based assay; assay type: functional
Escherichia coli [33] = experiment: Antibacterial activity against Escherichia coli ATCC25922 under 10^5 CFU/ml of bacterial inoculum culture by absorbance based assay; assay type: functional
Escherichia coli [34] = experiment: Antibacterial activity against Escherichia coli ATCC25922 under 10^6 CFU/ml of bacterial inoculum culture by absorbance based assay; assay type: functional
Escherichia coli [35] = experiment: Antibacterial activity against Escherichia coli ATCC25922 under 10^7 CFU/ml of bacterial inoculum culture by absorbance based assay; assay type: functional
Staphylococcus aureus [36] = experiment: Antibacterial activity against Staphylococcus aureus ATCC25923 under 10^4 CFU/ml of bacterial inoculum culture by absorbance based assay; assay type: functional
Staphylococcus aureus [37] = experiment: Antibacterial activity against Staphylococcus aureus ATCC25923 under 10^5 CFU/ml of bacterial inoculum culture by absorbance based assay; assay type: functional
Staphylococcus aureus [38] = experiment: Antibacterial activity against Staphylococcus aureus ATCC25923 under 10^6 CFU/ml of bacterial inoculum culture by absorbance based assay; assay type: functional
Staphylococcus aureus [39] = experiment: Antibacterial activity against Staphylococcus aureus ATCC25923 under 10^7 CFU/ml of bacterial inoculum culture by absorbance based assay; assay type: functional
Staphylococcus aureus [40] = experiment: Bactericidal activity against Staphylococcus aureus ATCC25923 at MIC incubated for 10 to 12 hrs by time-kill assay relative to control; assay type: functional; settings: time 10-12 hrs
Escherichia coli [41] = experiment: Bactericidal activity against Escherichia coli ATCC25922 at MIC incubated for 5 hrs by time-kill assay relative to control; assay type: functional
Staphylococcus aureus [42] = experiment: Induction of resistance development in Staphylococcus aureus ATCC25923 at 0.5 times MIC treated daily with continuous passaging measured for 20 passages by absorbance based assay; assay type: functional, organism-based; settings: time 20.0 day
Staphylococcus aureus [43] = experiment: Induction of resistance development in Staphylococcus aureus ATCC25923 treated daily with continuous passaging measured after 7 passages by absorbance based assay; assay type: functional; settings: ATCC25923, 168 h, time 7 day
Staphylococcus aureus [44] = experiment: Induction of resistance development in Staphylococcus aureus ATCC25923 treated daily with continuous passaging measured after 13 passages by absorbance based assay; assay type: functional; settings: ATCC25923, 312 h, time 13 day
Escherichia coli [45] = experiment: Induction of resistance development in Escherichia coli ATCC25922 treated daily with continuous passaging measured for 20 passages by absorbance based assay; assay type: functional, organism-based; settings: time 20.0 day
Escherichia coli [46] = experiment: Induction of resistance development in Escherichia coli ATCC25922 treated daily with continuous passaging measured after 8 passages by absorbance based assay; assay type: functional; settings: ATCC25922, 192 h, time 8 day
Escherichia coli [47] = experiment: Induction of resistance development in Escherichia coli ATCC25922 treated daily with continuous passaging measured after 12 passages by absorbance based assay; assay type: functional; settings: ATCC25922, 288 h, time 12 day
Escherichia coli [48] = experiment: Induction of resistance development in Escherichia coli ATCC25922 treated daily with continuous passaging measured after 19 passages by absorbance based assay; assay type: functional; settings: ATCC25922, 456 h, time 19 day
[49] = Cytotoxicity against mouse HT-22 cells incubated for 72 hrs by MTT assay; assay type: toxicity, cell-based
[50] = Selectivity index, ratio of IC50 for mouse HT-22 cells to MIC for methicillin-resistant Staphylococcus aureus; assay type: toxicity, cell-based
[51] = Toxicity in Kunming mouse assessed as histopathological changes in heart at 80 mg/kg/day, IG measured for 1 week; assay type: organism-based; settings: in vivo, po, 168 h, time 1 weeks
[52] = Toxicity in Kunming mouse assessed as histopathological changes in liver at 80 mg/kg/day, IG measured for 1 week; assay type: organism-based; settings: in vivo, po, 168 h, time 1 weeks
[53] = Toxicity in Kunming mouse assessed as histopathological changes in spleen at 80 mg/kg/day, IG measured for 1 week; assay type: organism-based; settings: in vivo, po, 168 h, time 1 weeks
[54] = Toxicity in Kunming mouse assessed as histopathological changes in lung at 80 mg/kg/day, IG measured for 1 week; assay type: organism-based; settings: in vivo, po, 168 h, time 1 weeks
[55] = Toxicity in Kunming mouse assessed as histopathological changes in kidney at 80 mg/kg/day, IG measured for 1 week; assay type: organism-based; settings: in vivo, po, 168 h, time 1 weeks

CC[C@H]1OC(=O)C[C@@H](O)[C@H](C)[C@@H](O[C@@H]2O[C@H](C)[C@@H](O)[C@H](N(C)C)[C@H]2O)[C@@H](CCN(C)Cc2cn(-c3cnc4ccccc4c3)nn2)C[C@@H](C)C(=O)/C=C/C(C)=C/[C@@H]1CNCc1cccc(C)c1
MIC (Staphylococcus aureus [1]): 0.5 µg/mL (≈ 0.541 µM)
MIC (Escherichia coli [2]): 0.5 µg/mL (≈ 0.541 µM)
MIC (Enterococcus faecalis [3]): 1 µg/mL (≈ 1.08 µM)
MIC [4]: 2 µg/mL (≈ 2.16 µM)
MIC (Staphylococcus aureus [5]): 0.5 µg/mL (≈ 0.541 µM)
MIC (Escherichia coli [6]): 0.5 µg/mL (≈ 0.541 µM)
MIC (Escherichia coli [7]): 1 µg/mL (≈ 1.08 µM)
MBC (Staphylococcus aureus [8]): 2 µg/mL (≈ 2.16 µM)
MIC (Staphylococcus aureus [9]): 0.5 µg/mL (≈ 0.541 µM)
Ratio (Staphylococcus aureus [10]): 2
MBC (Enterococcus faecalis [11]): 8 µg/mL (≈ 8.66 µM)
MIC (Enterococcus faecalis [12]): 1 µg/mL (≈ 1.08 µM)
Ratio (Enterococcus faecalis [13]): 4
MBC (Escherichia coli [14]): 4 µg/mL (≈ 4.33 µM)
MIC (Escherichia coli [15]): 1 µg/mL (≈ 1.08 µM)
Ratio (Escherichia coli [16]): 4
MBC [17]: 8 µg/mL (≈ 8.66 µM)
MIC [18]: 1 µg/mL (≈ 1.08 µM)
Ratio [19]: 8
MIC (Escherichia coli [20]): 0.5 µg/mL (≈ 0.541 µM)
MIC (Escherichia coli [21]): 0.5 µg/mL (≈ 0.541 µM)
MIC (Escherichia coli [22]): 0.5 µg/mL (≈ 0.541 µM)
MIC (Escherichia coli [23]): 0.25 µg/mL (≈ 0.271 µM)
MIC (Escherichia coli [24]): 0.125 µg/mL (≈ 0.135 µM)
MIC (Escherichia coli [25]): 0.125 µg/mL (≈ 0.135 µM)
MIC (Staphylococcus aureus [26]): 1 µg/mL (≈ 1.08 µM)
MIC (Staphylococcus aureus [27]): 0.5 µg/mL (≈ 0.541 µM)
MIC (Staphylococcus aureus [28]): 0.5 µg/mL (≈ 0.541 µM)
MIC (Staphylococcus aureus [29]): 0.5 µg/mL (≈ 0.541 µM)
MIC (Staphylococcus aureus [30]): 0.25 µg/mL (≈ 0.271 µM)
MIC (Staphylococcus aureus [31]): 0.125 µg/mL (≈ 0.135 µM)
MIC (Escherichia coli [32]): 0.125 µg/mL (≈ 0.135 µM)
MIC (Escherichia coli [33]): 0.25 µg/mL (≈ 0.271 µM)
MIC (Escherichia coli [34]): 0.5 µg/mL (≈ 0.541 µM)
MIC (Escherichia coli [35]): 0.5 µg/mL (≈ 0.541 µM)
MIC (Staphylococcus aureus [36]): 0.125 µg/mL (≈ 0.135 µM)
MIC (Staphylococcus aureus [37]): 0.25 µg/mL (≈ 0.271 µM)
MIC (Staphylococcus aureus [38]): 0.25 µg/mL (≈ 0.271 µM)
MIC (Staphylococcus aureus [39]): 0.5 µg/mL (≈ 0.541 µM)
Activity (Staphylococcus aureus [40]): 100%
Activity (Escherichia coli [41]): 100%
Activity (Staphylococcus aureus [42]): Not active; Compound Induced Resistance Less Rapidly Than That Of Control Drug Linezolid
MIC (Staphylococcus aureus [43]): 1 µg/mL (≈ 1.08 µM)
MIC (Staphylococcus aureus [44]): 2 µg/mL (≈ 2.16 µM)
Activity (Escherichia coli [45]): Not active; Compound Induced Resistance More Slowly Than Control Drug Florfenicol
MIC (Escherichia coli [46]): 1 µg/mL (≈ 1.08 µM)
MIC (Escherichia coli [47]): 2 µg/mL (≈ 2.16 µM)
MIC (Escherichia coli [48]): 4 µg/mL (≈ 4.33 µM)
IC50 at 72 h [49]: 130 µg/mL (≈ 141 µM)
selectivity ratio [50]: 130
Activity [51]: Non-toxic
Activity [52]: Non-toxic
Activity [53]: Non-toxic
Activity [54]: Non-toxic
Activity [55]: Non-toxic
